According to patent US11814367B2, “Inhibitors of glycogen synthase 1 (GYS1) and methods of use thereof” (Maze Therapeutics, Inc., priority 2021, dated 2023):

Columns and labels:
[1] = target: hGYS1 enzyme (recombinant hGYS1/GN1 protein) (Homo sapiens (Human), UniProt P13807); experiment: GYS1 coupled enzyme assay (PK/LDH); assay type: biochemical; conditions: hGYS1/GN1 50 nM, UDP-Glucose 0.8 mM, G6P 1 mM; geometric mean of at least 2 runs
[2] = tested on: hGYS1 enzyme / glycogen synthesis in HeLa cells; experiment: GYS1 cell based assay (glycogen synthesis, Glucose-glo); parameters: species or system human; conditions: Homo sapiens, HeLa, 24 h, 24 h incubation, 20 mM glucose, geometric mean of at least 2 runs
Outline: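 HeLa cells starved 24 h in medium containing only 1× Glutamax were plated onto compound in medium with 20 mM glucose (1% DMSO final) for 24 h, 37 °C, 5% CO2. Acid lysates were Tris-quenched, glucoamylase-digested (pH 5.3, 1 h, 37 °C) and read by Glucose-glo luminescence. IC50 came from Hill fits, as geometric mean of ≥2 runs.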

[3] = target: hGYS2 enzyme (recombinant hGYS2/GN1 protein) (Homo sapiens (Human), UniProt P54840); experiment: GYS2 coupled enzyme assay (PK/LDH); assay type: biochemical; conditions: geometric mean of at least 2 assay runs on separate days, read-out: Avg_IC50
Outline: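 Continuous PK/LDH-coupled readout of NADH loss at 340 nm over 10 min, with 200 nM hGYS2/GN1 and 2 mM each of UDP-glucose, glucose-6-phosphate and PEP, in 50 mM Tris pH 7.5 with 0.2% glycogen and 2.5% DMSO. Slopes were normalized to controls and IC50s fit to a Hill curve from duplicates.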

Chain of hGYS2 enzyme (recombinant hGYS2/GN1 protein) (P54840 whole entry): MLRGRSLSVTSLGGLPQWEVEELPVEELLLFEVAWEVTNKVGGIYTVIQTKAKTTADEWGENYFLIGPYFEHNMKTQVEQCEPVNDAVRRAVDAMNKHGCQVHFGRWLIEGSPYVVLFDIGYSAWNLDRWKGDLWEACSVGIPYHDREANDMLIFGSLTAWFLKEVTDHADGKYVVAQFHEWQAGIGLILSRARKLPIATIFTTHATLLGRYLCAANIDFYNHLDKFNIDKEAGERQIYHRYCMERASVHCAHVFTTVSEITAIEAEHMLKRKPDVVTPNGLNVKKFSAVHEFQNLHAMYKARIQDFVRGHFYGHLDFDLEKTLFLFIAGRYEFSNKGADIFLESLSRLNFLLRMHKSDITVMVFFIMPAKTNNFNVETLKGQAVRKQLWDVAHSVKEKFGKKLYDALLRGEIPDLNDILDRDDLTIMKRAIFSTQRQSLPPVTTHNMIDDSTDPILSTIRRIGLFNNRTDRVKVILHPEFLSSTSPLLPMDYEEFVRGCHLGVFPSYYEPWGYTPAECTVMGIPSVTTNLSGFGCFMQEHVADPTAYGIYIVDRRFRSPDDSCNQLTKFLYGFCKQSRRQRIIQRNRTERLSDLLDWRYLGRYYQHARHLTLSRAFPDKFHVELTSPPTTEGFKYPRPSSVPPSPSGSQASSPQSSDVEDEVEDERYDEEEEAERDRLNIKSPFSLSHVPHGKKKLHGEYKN
Chain of hGYS2 enzyme (recombinant hGYS2/GN1 protein) (P46976 whole entry partner): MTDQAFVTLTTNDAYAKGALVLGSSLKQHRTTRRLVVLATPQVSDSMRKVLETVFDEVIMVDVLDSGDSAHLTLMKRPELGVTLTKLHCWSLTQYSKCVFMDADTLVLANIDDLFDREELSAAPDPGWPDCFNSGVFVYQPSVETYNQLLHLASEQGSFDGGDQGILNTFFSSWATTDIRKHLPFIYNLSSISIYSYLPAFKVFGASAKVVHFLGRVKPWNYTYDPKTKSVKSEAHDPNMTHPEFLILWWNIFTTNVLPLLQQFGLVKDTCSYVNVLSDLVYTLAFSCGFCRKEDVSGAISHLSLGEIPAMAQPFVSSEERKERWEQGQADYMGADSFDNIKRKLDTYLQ
Chain of hGYS1 enzyme (recombinant hGYS1/GN1 protein) (P13807 whole entry): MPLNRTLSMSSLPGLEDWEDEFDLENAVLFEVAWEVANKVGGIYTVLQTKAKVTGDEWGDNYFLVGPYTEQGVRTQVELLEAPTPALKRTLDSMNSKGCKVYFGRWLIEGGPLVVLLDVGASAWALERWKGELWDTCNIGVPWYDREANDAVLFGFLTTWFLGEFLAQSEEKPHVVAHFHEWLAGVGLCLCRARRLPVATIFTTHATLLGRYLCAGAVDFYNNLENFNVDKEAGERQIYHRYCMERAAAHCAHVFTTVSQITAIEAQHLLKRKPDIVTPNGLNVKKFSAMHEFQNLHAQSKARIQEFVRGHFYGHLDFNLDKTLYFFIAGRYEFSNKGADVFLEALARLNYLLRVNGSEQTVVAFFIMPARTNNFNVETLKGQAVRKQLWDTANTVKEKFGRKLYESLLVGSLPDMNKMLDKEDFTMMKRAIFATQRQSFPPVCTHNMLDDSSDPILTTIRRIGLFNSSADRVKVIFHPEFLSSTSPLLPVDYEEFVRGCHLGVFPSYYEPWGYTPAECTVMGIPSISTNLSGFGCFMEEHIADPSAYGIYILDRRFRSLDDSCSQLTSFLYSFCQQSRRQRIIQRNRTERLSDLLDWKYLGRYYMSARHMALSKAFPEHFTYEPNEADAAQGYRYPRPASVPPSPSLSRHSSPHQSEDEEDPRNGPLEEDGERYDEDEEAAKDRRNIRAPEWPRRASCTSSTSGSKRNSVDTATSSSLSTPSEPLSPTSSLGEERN
Chain of hGYS1 enzyme (recombinant hGYS1/GN1 protein) (P46976 whole entry partner): as the sequence (P46976 whole entry partner) above

| Structure (SMILES) | IC50 [1] | IC50 [2] | IC50 [3] |
| --- | --- | --- | --- |
| CN(C)C(=O)NCC(=O)N1C[C@H](F)C[C@H]1C(=O)N[C@@H](c1ccccc1)c1ccc(C2CC(F)(F)C2)c(F)n1 [Compound 507, (2S,4R)-N-[(S)-[5-(3,3-difluorocyclobutyl)-6-fluoropyridin-2-yl](phenyl)methyl]-1-{2-[(dimethylcarbamoyl)amino]acetyl}-4-fluoropyrrolidine-2-carboxamide] | 22 nM | 260 nM | > 100000 nM |
| O=C(N[C@@H](c1ccccc1)c1ccc(C2CC(F)(F)C2)c(F)n1)[C@@H]1C[C@@H](F)CN1C(=O)Cc1cnn[nH]1 [Compound 508, (2S,4R)-N-[(S)-[5-(3,3-difluorocyclobutyl)-6-fluoropyridin-2-yl](phenyl)methyl]-4-fluoro-1-[2-(1H-1,2,3-triazol-5-yl)acetyl]pyrrolidine-2-carboxamide] | 21 nM | 310 nM | > 100000 nM |
| Cc1cnc(CC(=O)N2C[C@H](F)C[C@H]2C(=O)N[C@@H](c2ccccc2)c2ccc(C3CC(F)(F)C3)c(F)n2)o1 [Compound 509, (2S,4R)-N-[(S)-[5-(3,3-difluorocyclobutyl)-6-fluoropyridin-2-yl](phenyl)methyl]-4-fluoro-1-[2-(5-methyl-1,3-oxazol-2-yl)acetyl]pyrrolidine-2-carboxamide] | 8 nM | 180 nM | > 100000 nM |
| O=C(N[C@@H](c1ccccc1)c1ccc(C2CC(F)(F)C2)c(F)n1)[C@@H]1C[C@@H](F)CN1C(=O)Cc1[nH]nnc1C(F)(F)F [Compound 510, (2S,4R)-N-[(S)-[5-(3,3-difluorocyclobutyl)-6-fluoropyridin-2-yl](phenyl)methyl]-4-fluoro-1-{2-[4-(trifluoromethyl)-1H-1,2,3-triazol-5-yl]acetyl} pyrrolidine-2-carboxamide] | 9 nM | 230 nM | > 100000 nM |
| Cc1coc(CC(=O)N2C[C@H](F)C[C@H]2C(=O)N[C@@H](c2ccccc2)c2ccc(C3CC(F)(F)C3)c(F)n2)n1 [Compound 511, (2S,4R)-N-[(S)-[5-(3,3-difluorocyclobutyl)-6-fluoropyridin-2-yl](phenyl)methyl]-4-fluoro-1-[2-(4-methyl-1,3-oxazol-2-yl)acetyl]pyrrolidine-2-carboxamide] | 12 nM | 260 nM | > 100000 nM |
| O=C(N[C@@H](c1ccccc1)c1ccc(C2CC(F)(F)C2)c(F)n1)[C@@H]1C[C@@H](F)CN1C(=O)CNC(=O)N1CC(F)(F)C1 [Compound 512, (2S,4R)-1-{2-[(3,3-difluoroazetidine-1-carbonyl)amino]acetyl}-N-[(S)-[5-(3,3-difluorocyclobutyl)-6-fluoropyridin-2-yl](phenyl)methyl]-4-fluoropyrrolidine-2-carboxamide] | 15 nM | 290 nM | > 100000 nM |
| O=C(N[C@@H](c1ccccc1)c1ccc(C2CC(F)(F)C2)c(F)n1)[C@@H]1C[C@@H](F)CN1C(=O)Cn1nnnc1C(F)F [Compound 513, (2S,4R)-N-[(S)-[5-(3,3-difluorocyclobutyl)-6-fluoropyridin-2-yl](phenyl)methyl]-1-{2-[5-(difluoromethyl)-1H-1,2,3,4-tetrazol-1-yl]acetyl}-4-fluoropyrrolidine-2-carboxamide] | 14 nM | 220 nM | > 100000 nM |
| O=C(N[C@@H](c1ccccc1)c1ccc(C2CC(F)(F)C2)c(F)n1)[C@@H]1C[C@@H](F)CN1C(=O)Cn1ccc(=O)[nH]c1=O [Compound 514, (2S,4R)-N-[(S)-[5-(3,3-difluorocyclobutyl)-6-fluoropyridin-2-yl](phenyl)methyl]-1-[2-(2,4-dioxo-1,2,3,4-tetrahydropyrimidin-1-yl)acetyl]-4-fluoropyrrolidine-2-carboxamide] | 7 nM | 770 nM | > 100000 nM |
| CCn1c(=O)ccn(CC(=O)N2C[C@H](F)C[C@H]2C(=O)N[C@@H](c2ccccc2)c2ccc(C3CC(F)(F)C3)c(F)n2)c1=O [Compound 515, (2S,4R)-N-[(S)-[5-(3,3-difluorocyclobutyl)-6-fluoropyridin-2-yl](phenyl)methyl]-1-[2-(3-ethyl-2,4-dioxo-l,2,3,4-tetrahydropyrimidin-1-yl)acetyl]-4-fluoropyrrolidine-2-carboxamide] | 4 nM | 100 nM | > 100000 nM |
| O=C(N[C@@H](c1ccccc1)c1ccc(C2CC(F)(F)C2)c(F)n1)[C@@H]1C[C@@H](F)CN1C(=O)Cc1ccc(=O)[nH]c1 [Compound 516, (2S,4R)-N-[(S)-[5-(3,3-difluorocyclobutyl)-6-fluoropyridin-2-yl](phenyl)methyl]-4-fluoro-1-[2-(6-oxo-1,6-dihydropyridin-3-yl)acetyl]pyrrolidine-2-carboxamide] | 8 nM | 710 nM | > 100000 nM |
| O=C(N[C@@H](c1ccccc1)c1ccc(C2CC(F)(F)C2)c(F)n1)[C@@H]1C[C@@H](F)CN1C(=O)Cc1ccc[nH]c1=O [Compound 517, (2S,4R)-N-[(S)-[5-(3,3-difluorocyclobutyl)-6-fluoropyridin-2-yl](phenyl)methyl]-4-fluoro-1-[2-(2-oxo-1,2-dihydropyridin-3-yl)acetyl]pyrrolidine-2-carboxamide] | 8 nM | 540 nM | > 100000 nM |
| CCn1c(=O)c(C)cn(CC(=O)N2C[C@H](F)C[C@H]2C(=O)N[C@H](c2ccccc2)c2ccc(C3CC(F)(F)C3)c(F)n2)c1=O [Compound 518, (2S,4R)-N-[(R)-[5-(3,3-difluorocyclobutyl)-6-fluoropyridin-2-yl](phenyl)methyl]-1-[2-(3-ethyl-5-methyl-2,4-dioxo-1,2,3,4-tetrahydropyrimidin-1-yl)acetyl]-4-fluoropyrrolidine-2-carboxamide] | 1500 nM | 10700 nM | > 100000 nM |

The next lines start with the values.

| IC50 [1] | IC50 [2] | IC50 [3] | Structure (SMILES) |
| --- | --- | --- | --- |
| 8 nM | 220 nM | > 100000 nM | CCn1cc(CC(=O)N2C[C@H](F)C[C@H]2C(=O)N[C@@H](c2ccccc2)c2ccc(C3CC(F)(F)C3)c(F)n2)ccc1=O [Compound 519, (2S,4R)-N-[(S)-[5-(3,3-difluorocyclobutyl)-6-fluoropyridin-2-yl](phenyl)methyl]-1-[2-(1-ethyl-6-oxo-1,6-dihydropyridin-3-yl)acetyl]-4-fluoropyrrolidine-2-carboxamide] |
| 557 nM | > 30000 nM | > 100000 nM | O=C(N[C@H](c1ccccc1)c1ccc(C2CC(F)(F)C2)c(F)n1)[C@@H]1C[C@@H](F)CN1C(=O)Cc1ccc(=O)[nH]c1 [Compound 520, (2S,4R)-N-[(R)-[5-(3,3-difluorocyclobutyl)-6-fluoropyridin-2-yl](phenyl)methyl]-4-fluoro-1-[2-(6-oxo-1,6-dihydropyridin-3-yl)acetyl]pyrrolidine-2-carboxamide] |
| 5 nM | 450 nM | > 100000 nM | Cc1cc(CC(=O)N2C[C@H](F)C[C@H]2C(=O)N[C@@H](c2ccccc2)c2ccc(C3CC(F)(F)C3)c(F)n2)c[nH]c1=O [Compound 522, (2S,4R)-N-[(S)-[5-(3,3-difluorocyclobutyl)-6-fluoropyridin-2-yl](phenyl)methyl]-4-fluoro-1-[2-(5-methyl-6-oxo-1,6-dihydropyridin-3-yl)acetyl]pyrrolidine-2-carboxamide] |
| 65 nM | 1180 nM | > 100000 nM | CN(C)C(=O)NCC(=O)N1C[C@H](F)C[C@H]1C(=O)N[C@@H](c1ccccc1)c1ccc(C2CC(F)(F)C2)cn1 [Compound 532, (2S,4R)—N—((S)-(5-(3,3-difluorocyclobutyl)pyridin-2-yl)(phenyl)methyl)-1-((dimethylcarbamoyl)glycyl)-4-fluoropyrrolidine-2-carboxamide] |
| 43 nM | 1210 nM | > 100000 nM | O=C(N[C@@H](c1ccccc1)c1ccc(C2CC(F)(F)C2)cn1)[C@@H]1C[C@@H](F)CN1C(=O)CNC(=O)N1CCC1 [Compound 533, (2S,4R)-1-{2-[(azetidine-1-carbonyl)amino]acetyl}-N-[(S)-[5-(3,3-difluorocyclobutyl)pyridin-2-yl](phenyl)methyl]-4-fluoropyrrolidine-2-carboxamide] |
| 57 nM | 1280 nM | > 100000 nM | O=C(N[C@@H](c1ccccc1)c1ccc(C2CC(F)(F)C2)cn1)[C@@H]1C[C@@H](F)CN1C(=O)Cc1cnn[nH]1 [Compound 534, (2S,4R)-N-[(S)-[5-(3,3-difluorocyclobutyl)pyridin-2-yl](phenyl)methyl]-4-fluoro-1-[2-(1H-1,2,3-triazol-5-yl)acetyl]pyrrolidine-2-carboxamide] |
| 12 nM | 1220 nM | > 100000 nM | Cc1cn(CC(=O)N2C[C@H](F)C[C@H]2C(=O)N[C@@H](c2ccccc2)c2ccc(C3CC(F)(F)C3)cn2)c(=O)[nH]c1=O [Compound 535, (2S,4R)-N-[(S)-[5-(3,3-difluorocyclobutyl)pyridin-2-yl](phenyl)methyl]-4-fluoro-1-[2-(5-methyl-2,4-dioxo-1,2,3,4-tetrahydropyrimidin-1-yl)acetyl] pyrrolidine-2-carboxamide] |
| 24 nM | 350 nM | > 100000 nM | Cc1cnc(CC(=O)N2C[C@H](F)C[C@H]2C(=O)N[C@@H](c2ccccc2)c2ccc(C3CC(F)(F)C3)cn2)o1 [Compound 536, (2S,4R)-N-[(S)-[5-(3,3-difluorocyclobutyl)pyridin-2-yl](phenyl)methyl]-4-fluoro-1-[2-(5-methyl-1,3-oxazol-2-yl)acetyl]pyrrolidine-2-carboxamide] |
